Source: patent publication US20200061084A1, “USE OF 2AMD AND 2MD TO TREAT FIBROSIS” (WISCONSIN ALUMNI RESEARCH FOUNDATION, priority 2016, published 2020)

Tests used:
[1] = system: CsA-induced nephrotoxicity; assay: CsA-induced nephrotoxicity in rats, 28 days: weight, serum BUN and creatinine, urinary protein/creatinine ratio, H&E and picrosirius red histology; assay type: in vivo, Sprague-Dawley male rats; settings: for Dose sufficient to prevent nephrotoxicity and/or fibrosis without dramatically increasing serum calcium levels: Sprague-Dawley rats; for Picrosirius staining (collagens): kidney sections, birefringence quantified; for Picrosirius staining (collagens) / Serum creatinine / BUN / Urinary protein/creatinine ratio: rats; for Picrosirius staining (collagens) / weight / Serum creatinine / BUN / Urinary protein/creatinine ratio: CsA 20 mg/kg/day, analog 5 ng/kg, daily 28 days; for weight: rats at harvest; for BUN: serum; for Urinary protein/creatinine ratio: spot urine at harvest
Description: Rats were randomly assigned to groups of 6 each. Each animal received daily injections under 2% isofluorane. […] Vitamin D analogs were dissolved in polyethylene glycol, 0.5% ethanol (PEG). […] All rats were provided with food and water ad-libitum as per standard procedure. Animals were dosed daily for 28 days with the last dose given approximately 24 h prior to harvest (except for 5 animals receiving 1,25(OH)2D3 which were dosed 48 h prior to harvest). Animals were placed under anesthesia, urine and blood (aorta) were collected and kidneys removed; rats were euthanized by pneumothorax puncture. Kidneys were sectioned longitudinally with one half placed into 10% formalin and the other half snap frozen into liquid nitrogen. Blood was allowed to clot for about 1 h followed by spinning and removing of serum. Tissues in formalin were embedded in paraffin and sectioned for further study. Serum, urine and frozen kidney tissues were stored at -80° C. […] Serum was analyzed for BUN, creatinine and calcium levels. The BUN and creatinine measurements were performed using IDEXX cartridges measured on a […] Chemistry Analyzer. […] Urine testing to determine protein/creatinine ratio was performed using IDEXX cartridges; protein levels were also measured using BCA protein determination. Kidneys fixed in formalin were embedded in paraffin, sectioned and stained with Hematoxilin/eosin and with pricrosirius red, which stains mostly collagens I and III. Stained sections were imaged on an upright brightfield Nikon microscope with polarizer capabilities to assess the birefringence of the picrosirius-stained collagen fibers. Quantization of staining was carried out using Image J from 5 images obtained at random within the central cortical area and excluding blood vessels. For H&E, the eosin staining (pink) prevalent in native tissue was quantified Data was analyzed using Graphpad Prism software with the standard student t-test or One-way Anova operations.

[2] = Serum calcium levels of rats dosed with CsA and vitamin D analogs (atomic absorption spectroscopy); assay type: in vivo, Sprague-Dawley male rats
Description: Rats were randomly assigned to groups of 6 each. Each animal received daily injections under 2% isofluorane. […] Vitamin D analogs were dissolved in polyethylene glycol, 0.5% ethanol (PEG). […] All rats were provided with food and water ad-libitum as per standard procedure. Animals were dosed daily for 28 days with the last dose given approximately 24 h prior to harvest (except for 5 animals receiving 1,25(OH)2D3 which were dosed 48 h prior to harvest). Animals were placed under anesthesia, urine and blood (aorta) were collected and kidneys removed; rats were euthanized by pneumothorax puncture. Kidneys were sectioned longitudinally with one half placed into 10% formalin and the other half snap frozen into liquid nitrogen. Blood was allowed to clot for about 1 h followed by spinning and removing of serum. Tissues in formalin were embedded in paraffin and sectioned for further study. Serum, urine and frozen kidney tissues were stored at −80° C.
Serum was analyzed for BUN, creatinine and calcium levels. The BUN and creatinine measurements were performed using IDEXX cartridges measured on a VETTEST Chemistry Analyzer.

[3] = system: unilateral ureteral obstruction (UUO) model; assay: Unilateral ureteral obstruction (UUO) model, picrosirius staining of collagen in kidney sections; assay type: in vivo, Male Sprague-Dawley rats
From the text: The unilateral ureteral obstruction (UUO) model is a surgical model representing a rodent equivalent of acute kidney injury. Obstruction results in marked dilatation of the ureter together with reduced renal blood flow and glomerular filtration.
Male Sprague-Dawley rats weighing approximately 200-350 g were acclimated and fed ad libitum a standard diet (Teklad 8604 or 2018, Harlan, Madison Wis.). Briefly, under 2% isoflurane anesthesia, the left kidney and ureter were exposed through a midline or a flank incision. The ureter was ligated using 5-0 or 6-0 braided silk suture material. The ligated ureter and kidney were returned to the abdominal cavity and the incision was closed in two layers with interrupted sutures and VETBOND tissue adhesive or staples. The right or contralateral kidney was used as a control. Sham operated animals were treated as the UUO animals except their ureter was not ligated (not shown).
Animals were given buprenorphine (0.05 mg/kg) prior to returning them to their cages where they were kept on standard water and chow until sacrifice at the designated times. Animals were euthanized under CO2, following a midline incision blood was collected via cardiac puncture and the kidneys were removed. The midsection of each kidney was placed in 10% formalin for paraffin embedding and histological staining. […]

Row | Molecule | Dose sufficient to prevent nephrotoxicity and/or fibrosis without dramatically increasing serum calcium levels [1] [ng/kg per day] | Decrease of BUN compared to the CsA-treated group ([1]; analog at 5 ng/kg) | Mean UPC lower than the mean UPC for the CsA group ([1]; analog at 5 ng/kg) | Picrosirius staining (collagens) [1] | weight [1] [g] | Serum creatinine [1] [mg/dL] | BUN [1] [mg/dL] | Urinary protein/creatinine ratio [1] | further results
1 | 2α-methyl-19-nor-(20S)-1α,25-dihydroxyvitamin D3 [2AMD] | 5 | about 30% | about 74% | 1.8 | 333.8 | 0.36 | 28 | 0.2 | Collagen content ([1]; 2.5 ng/kg): reduction in collagen content; Decrease of BUN compared to the CsA-treated group ([1]; 2AMD at 10 ng/kg): about 30%; Serum creatinine, normal (below 0.6 mg/dL) or not ([1]; 2AMD at 20 ng/kg): normal in most of the treatment groups except for 2AMD at 20 ng/kg; Eosinophilic tissue (eosin in H&E-stained kidney) compared to the CsA treated group ([1]; CsA + 2AMD 2.5 ng/kg): promoted an increase in eosinophilic tissue; Eosinophilic tissue (eosin in H&E-stained kidney) compared to the CsA treated group ([1]; CsA + 2AMD 5 ng/kg): promoted an increase in eosinophilic tissue; Decrease of the CsA-promoted increase in collagen birefringence (picrosirius red) ([1]; CsA + 2AMD 5 ng/kg, 28 days): about 30%; Drop in weight from the rats' original weights ([1]; CsA + 2AMD 5 ng/kg, day of harvest): 5 g; Fibrosis ([1]; all doses of 2AMD (2.5, 5, 10, 20 ng/kg)): effective at reducing fibrosis; Dose optimal in nephroprotection ([1]; various doses of 2AMD tested): 5 ng/kg rat body weight; Relationship of serum calcium levels with dose ([2]; rat, in vivo): linear relationship with dose; Decrease in collagen content (picrosirius staining) ([3]; 2AMD 5 ng/kg oral daily for 14 days starting on the day of UUO): 3 fold; Decrease in collagen content (picrosirius staining) ([3]; 2AMD 5 ng/kg oral daily, from 7 days prior to UUO to 7 days after UUO (-7+7)): 3 fold
2 | C=C1/C(=C\C=C2/CCC[C@]3(C)[C@@H]([C@H](C)CCCC(C)(C)O)CC[C@@H]23)C[C@@H](O)C[C@@H]1O [1,25(OH)2 D3, 1,25(OH)2D3] |  |  |  |  |  |  |  |  | Serum calcium level increase with respect to rats with vehicles or CsA+PEG ([2]; CsA + 1,25(OH)2D3 100 ng/kg, 28 days): about 25%
3 | cyclosporine [CsA + PEG] |  |  |  |  |  |  |  |  | Serum Ca ([2]; rats, CsA 20 mg/kg/day, analog 5 ng/kg, daily injection 28 days, blood about 24 h after last dose): 8.7 mg/dL
4 | C=C1[C@H](O)CC(=C/C=C2\CCCC3(C)C2CCC3[C@@H](C)CCCC(C)(C)O)C[C@H]1O (stereo partly drawn) [2MD, 2-methylene-19-nor-(20S)-1α,25-dihydroxyvitamin D3] | 5 | about 30% | about 74% | 1.7 | 317.3 | 0.33 | 27 | 0.4 | 
